Results taken from patent US6808936B1, “Methods and compositions for use in the diagnosis and treatment of chronic immune disease” (R.E.D. Laboratories, N.V., priority 2000, dated 2004).

What was measured:
Experiment in all cases: Caspase activity in extracts of U937 cell line induced to apoptosis with camptothecin
Format in all cases: cell-based, human
caspase 2 = conditions: U937 Cell Line Induced (G3), camptothecin 10 micrograms per mL; n 4; uninduced 50 ± 32
Protocol: (§1) Caspase levels in PBMC extracts were measured using a commercially available kit (BioSource International) based on a calorimetric assay. Briefly, PBMC extracts were diluted to a final concentration of 1 microgram of protein per 50 microliters of diluent (provided with the kit). This sample (1 microgram) was then added to 55 microliters of assay buffer containing a substrate specific for the particular caspase to be measured (if caspase activity is present, the substrate is cleaved, liberating color). Cell extracts to be used as positive and negative controls for caspase activity levels were prepared using the method of […] et al. (1999), Oncogene 14:1007-1012). Briefly, the human monocytic leukemia cell line U937 was induced to begin apoptosis by treatment with camptothecin at a concentration of 10 micrograms per mL of 2×10^6 cells. Uninduced cells were used as the negative control. Also included as a negative control were normal human monocytes, elutriated and frozen as live cells. All cell extracts and protein determinations were made as described above. The reaction mixture (1 microgram protein sample+caspase substrate) was incubated at 37 degrees C. for 20-24 hours. The resultant color was measured using a spectrophotometer at a wavelength of 405 nm. Background absorbance (i.e., from a reagent blank without protein) was subtracted from all sample values. All assays were performed in triplicate, […]

caspase 8 = conditions: U937 Cell Line Induced (G3), camptothecin 10 micrograms per mL; n 4; uninduced 91 ± 11
Protocol: as §1

caspase 9 = conditions: U937 Cell Line Induced (G3), camptothecin 10 micrograms per mL; n 4; uninduced 45 ± 6
Protocol: as §1

caspase 3 = system: caspase 3
Protocol: as §1

caspase 6 = conditions: U937 Cell Line Induced (G3), camptothecin 10 micrograms per mL; n 4; uninduced 162 ± 20
Protocol: as §1

CC[C@@]1(O)C(=O)OCc2c1cc1n(c2=O)Cc2cc3ccccc3nc2-1 [camptothecin]
C2 caspase activity (caspase 2): 251 ± 39
C8 caspase activity (caspase 8): 207 ± 52
C9 caspase activity (caspase 9): 90 ± 29
Caspase 3 Activity (caspase 3; Table 2: U937 Cell Line Induced (G3), camptothecin, mean ± s.d. of triplicates, uninduced 82 ± 9): 336 ± 6 mAU
C3 caspase activity (caspase 3; U937 Cell Line Induced (G3), camptothecin 10 micrograms per mL, n 4, uninduced 73 ± 26): 304 ± 50
C6 caspase activity (caspase 6): 277 ± 57
